Measured values taken from patent US20220372024A1, “CRYSTALLINE FORMS OF ENTRECTINIB” (Johnson Matthey Public Limited Company, priority 2019, published 2022).
Where two headings read alike, the source gives them in different places.

What was measured:
Format in all cases: physicochemical
[1] = Storage stability of the crystalline form (XRPD diffractogram and chemical purity); details: 28 days storage at 40° C./75% RH and 25° C./97% RH
Description: (§1) Entrectinib anhydrate (Form A) was also characterised as follows: • TGA and DSC analysis (see FIG. 2). • GVS isotherm analysis (see FIG. 3). • XRPD analysis pre- (bottom) and post- (top) GVS (see FIG. […] 5). The XRPD overlays illustrate that entrectinib anhydrate (Form A) is stable under the storage conditions.
Entrectinib anhydrate (Form C) was also characterised as follows: • TGA and DSC analysis (see FIG. 9). • GVS isotherm analysis (see FIG. 10). • XRPD analysis before (bottom) and after (top) the GVS experiment (see FIG. […] 12). The XRPD overlays illustrate that entrectinib anhydrate (Form C) is stable under the storage conditions (see FIG. 12).
as §1, with “monohydrate” for “anhydrate”, “G)” for “A)”, “20).” for “2).”, “21).” for “3).”, “23).” for “5).”

[2] = Gravimetric vapour sorption (GVS), XRPD after analysis; details: 25° C., 0-90% RH
Description: Hygroscopicity of a solid material may be determined by means of gravimetric vapour sorption (GVS) analysis, sometimes known by dynamic vapour sorption (DVS) analysis. The experiment subjects a sample material which is held in a fine wire basket on a microbalance within a temperature and humidity controlled environment (chamber). Using the software, the collected data can then be processed to determine the isotherm points at the increment ranges specified during the experiment and show the overall water uptake of the material. Sorption isotherms were obtained using a SMS DVS Intrinsic moisture sorption analyser, controlled by DVS Intrinsic Control software. The sample temperature was maintained at 25° C. by the instrument controls. The humidity was controlled by mixing streams of dry and wet nitrogen, with a total flow rate of 200 ml/min. The relative humidity was measured by a calibrated Rotronic probe (dynamic range of 1.0-100% RH), located near the sample. The weight change, (mass relaxation) of the sample as a function of % RH was constantly monitored by a microbalance (accuracy ±0.005 mg). Typically, 5-30 mg of sample was placed in a tared mesh stainless steel basket under ambient conditions. The sample was loaded and unloaded at 40% RH and 25° C. (typical room conditions). A moisture sorption isotherm was performed as outlined below (2 scans per complete cycle). The standard isotherm was performed at 25° C. at 10% RH intervals over a 0-90% RH range. Typically, a double cycle (4 scans) was carried out. Data analysis was carried out within Microsoft Excel using the DVS Analysis Suite. [table]

[3] = Four hour solubility in buffered media (HPLC quantitation); details: for solubility at 4 h: 25 °C, thermodynamic from solid, read-out: Solubility after 4 hours; for Solubility after 4 hours: 25° C.
Protocol: Sufficient sample was suspended in 1.0 ml media for a maximum anticipated concentration of ca. 10 mg/ml of the free form of the compound. The resulting suspensions were then shaken at 25° C./750 rpm for 4 hours. The pH of the sample solutions was checked after 1 hour and adjusted as necessary with 0.2 M NaOH to ensure that the desired pH was maintained throughout (±0.2). After equilibration, the appearance was noted, and the final pH of the saturated solution was measured. Samples were then filtered through a glass C′ fibre filter (Particle retention size 1.2 μm). Samples suspended in pH 1.2 buffer were diluted 10 times with pH 1.2 buffer, all other samples were analysed undiluted. Quantitation was by HPLC with reference to a standard solution of approximately 0.15 mg/ml. Different volumes of the standard, diluted and undiluted sample solutions were injected. The solubility was calculated using the peak areas determined by integration of the peak found at the same retention time as the principal peak in the standard injection. [table] [table]

[4] = Intrinsic dissolution rate (IDR), Sirius inForm; details: pH 2.8, 37° C., 3 mm disc
Description: Data were collected on a Sirius inForm instrument fitted with a dual UV Dip Probe attachment and Ag/AgCl combination pH electrode. The electrode was calibrated using the four plus parameters derived from a blank titration. The base titrant was standardised by titration with TRIS. 0.5 M HCl and NaOH aqueous solutions were used as the acid and base titrants respectively for the testing. Stirring was facilitated by a dual overhead stirrer to allow thorough mixing within the vessel, and media was introduced via a capillary bundle attached to a dispensing bank comprised of six precision dispensing units. A Peltier heating jacket was used to maintain the temperature of the titration vessel. Discs were introduced to the vessel via the tablet picker housed in the probe arm, after the desired temperature of the media had been reached. Sirius inForm Assay Design, Control and Refine software were used to design, run and refine data respectively. The reference sample was prepared as a 10.1 mM stock solution in DMSO. MEC data was then collected using UV metric method with initial addition of 100 μl of DMSO stock. UV Spectra were then collected from low to high pH (pH 2-12) in two titrations using a 5 mm path length. The MEC data set was then imported into the dissolution data files in order to convert the UV absorbance measured to concentration. The concentration range for UV data collected was […]. MEC data were collected in the dissolution media (36 ml of ISA water+4 ml of GI Tract buffer) and at 37° C. to match the dissolution experiments. Ca. 8-20 mg of the sample was compressed in a 3 mm disc recess, under 100 kg for 2 minutes, with greaseproof paper on the compression base, to form non-disintegrating discs. The discs were then plugged with a bung so that only one surface was exposed to the media during analysis and transferred to the Sirius inForm dissolution apparatus. […] The IDR was calculated based on the surface area of the 3 mm disc recess used (7.07 mm^2 surface area). […]

[5] = pH 1.2 hydrochloric acid buffer

Stability under the storage conditions (XRPD overlays) [1] | Change in form after GVS (XRPD after analysis) [2] | solubility at 4 h ([3]; hydrochloric acid buffer, pH 1.2, simulated gastric fluid, pH 1.2 hydrochloric acid buffer) | solubility at 4 h ([3]; pH 2.8 buffer, pH 2.8, aqueous buffer, pH 2.8 buffer) | Solubility after 4 hours ([3]; pH 4.5 acetate buffer) | Solubility after 4 hours ([3]; pH 6.8 phosphate buffer) | Solubility after 4 hours ([3]; pH 7.5 phosphate buffer) | IDR [4] | Solubility after 4 hours [3, 5] | Solubility after 4 hours ([3]; pH 2.8 buffer) | SMILES
stable | unchanged | > 5 mg/mL | > 5 mg/mL | pH 4.5->5.0 mg/ml | pH 6.8-0.0024 mg/ml | pH 7.5-0.0013 mg/ml | pH 2.8: 2.5 mg/min/cm^2 |  |  | CN1CCN(c2ccc(C(=O)Nc3n[nH]c4ccc(Cc5cc(F)cc(F)c5)cc34)c(NC3CCOCC3)c2)CC1 [Form A, N-[5-[(3,5-difluorophenyl)methyl]-1H-indazol-3-yl]-4-(4-methylpiperazin-1-yl)-2-(oxan-4-ylamino)benzamide]
stable | unchanged |  |  | pH 4.5-4.0 mg/ml | pH 6.8-0.0013 mg/ml | pH 7.5-0.0006 mg/ml | pH 2.8: 2.5 mg/min/cm^2 | pH 1.2-4.3 mg/ml | pH 2.8->5.0 mg/ml | CN1CCN(c2ccc(C(=O)Nc3n[nH]c4ccc(Cc5cc(F)cc(F)c5)cc34)c(NC3CCOCC3)c2)CC1 [Form C, N-[5-[(3,5-difluorophenyl)methyl]-1H-indazol-3-yl]-4-(4-methylpiperazin-1-yl)-2-(oxan-4-ylamino)benzamide]
stable | substantially unchanged |  |  | pH 4.5-0.10 mg/ml | pH 6.8-0.0002 mg/ml | pH 7.5-0.0002 mg/ml | pH 2.8: 1.6 mg/min/cm^2 | pH 1.2->5.0 mg/ml | pH 2.8->5.0 mg/ml | CN1CCN(c2ccc(C(=O)Nc3n[nH]c4ccc(Cc5cc(F)cc(F)c5)cc34)c(NC3CCOCC3)c2)CC1 [Form G, N-[5-[(3,5-difluorophenyl)methyl]-1H-indazol-3-yl]-4-(4-methylpiperazin-1-yl)-2-(oxan-4-ylamino)benzamide]
